In patent US20170030929A1, “DIAGNOSIS OF CHRONIC KIDNEY DISEASE BY QUANTITATIVE ANALYSIS OF POST-TRANSLATIONAL MODIFICATIONS OF PLASMA PROTEINS” (EXCORLAB GMBH, priority 2014, published 2017):

Tests used:
albumin = albumin (Homo sapiens, UniProt P02768); conditions: literature references; cited from earlier work
[1] = target: in-vitro guanidylated albumin (Homo sapiens, UniProt P02768); assay: Effect of in-vitro guanidylation on protein bound fraction of albumin; conditions: albumin 75 μmol l^−1, ligand 7.5 μmol l^−1; over time of guanidylation (0-48 h)
Chain of in-vitro guanidylated albumin (P02768 25-609): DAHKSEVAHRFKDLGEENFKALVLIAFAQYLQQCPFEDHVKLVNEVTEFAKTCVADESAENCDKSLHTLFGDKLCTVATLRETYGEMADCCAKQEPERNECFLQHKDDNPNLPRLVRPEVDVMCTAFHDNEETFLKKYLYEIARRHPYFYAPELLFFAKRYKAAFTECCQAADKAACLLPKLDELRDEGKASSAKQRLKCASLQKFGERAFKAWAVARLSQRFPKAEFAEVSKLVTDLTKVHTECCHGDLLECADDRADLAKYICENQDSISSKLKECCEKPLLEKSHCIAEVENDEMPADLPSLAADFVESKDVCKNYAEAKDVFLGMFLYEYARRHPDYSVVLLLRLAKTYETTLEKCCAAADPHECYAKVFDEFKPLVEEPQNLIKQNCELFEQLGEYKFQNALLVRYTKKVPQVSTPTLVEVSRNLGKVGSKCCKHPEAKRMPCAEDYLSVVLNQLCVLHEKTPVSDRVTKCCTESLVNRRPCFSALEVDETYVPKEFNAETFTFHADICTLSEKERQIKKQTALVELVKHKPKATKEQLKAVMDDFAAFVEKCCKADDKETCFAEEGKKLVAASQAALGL

Chain of albumin (P02768 25-609): as above

N[C@@H](Cc1c[nH]c2ccccc12)C(=O)O [L-tryptophan]
affinity to post-translational modified albumin as compared to indoxyl sulfate (albumin): more than two orders of magnitude lower affinity
decrease of binding of albumin caused by in-vitro guanidylation [1]: 81%
